# Assay results published in patent US20260159512A1, “BCAT2 INHIBITORS” (AGIOS PHARMACEUTICALS, INC., priority 2021, published 2026).
# pIC50: −log10 of the molar value.
# How the values were obtained:
# Conditions in all cases: average where tested multiple times
# hBCAT1 = biological target: T1, hBCAT1 (Homo sapiens, UniProt P54687); assay: BCAT1 in vitro enzyme inhibition assay (resazurin/diaphorase-coupled fluorescence); format: biochemical
# T1 sequence (P54687 1-386): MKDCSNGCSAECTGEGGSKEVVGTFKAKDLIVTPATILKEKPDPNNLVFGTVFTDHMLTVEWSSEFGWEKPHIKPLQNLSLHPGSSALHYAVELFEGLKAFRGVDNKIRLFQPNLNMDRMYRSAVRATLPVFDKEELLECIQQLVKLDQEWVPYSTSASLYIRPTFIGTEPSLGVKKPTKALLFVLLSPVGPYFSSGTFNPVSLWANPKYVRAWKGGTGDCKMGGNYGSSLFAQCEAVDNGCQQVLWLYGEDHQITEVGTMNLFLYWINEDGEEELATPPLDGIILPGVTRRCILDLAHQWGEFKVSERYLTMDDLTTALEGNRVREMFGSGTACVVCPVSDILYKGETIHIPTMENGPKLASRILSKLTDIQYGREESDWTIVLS
# Method: BCAT1 In Vitro Enzyme Inhibition Assay
# Meanwhile the Substrate Mix was prepared.
# Test Compound Preparation:
# Test compounds were prepared at 50× final concentration in DMSO, 1 to 3 dilutions were made for 10 points. The compounds were added to the assay as a 1 to 50 dilution (1 μL in 50 μL) to yield a top assay final concentration of 100 μM, decreasing 3-fold for 10 points. […] All tests were performed in technical duplicate.
# Where a compound was tested multiple times, the average value of the tests is reported.
# BCAT2 [1] = biological target: T2, BCAT2 (Homo sapiens, UniProt O15382); assay: BCAT2 in vitro enzyme inhibition assay (resazurin/diaphorase-coupled fluorescence); format: biochemical; design: key to BCAT2 Enzyme Inhibition: A: less than or equal to 0.100 μM; B: greater than 0.100 and less than or equal to 0.500 μM; C: greater than 0.500 and less than or equal to 1.000 μM; d: greater than 1.000 μM; E: no fit
# T2 sequence (O15382 28-392): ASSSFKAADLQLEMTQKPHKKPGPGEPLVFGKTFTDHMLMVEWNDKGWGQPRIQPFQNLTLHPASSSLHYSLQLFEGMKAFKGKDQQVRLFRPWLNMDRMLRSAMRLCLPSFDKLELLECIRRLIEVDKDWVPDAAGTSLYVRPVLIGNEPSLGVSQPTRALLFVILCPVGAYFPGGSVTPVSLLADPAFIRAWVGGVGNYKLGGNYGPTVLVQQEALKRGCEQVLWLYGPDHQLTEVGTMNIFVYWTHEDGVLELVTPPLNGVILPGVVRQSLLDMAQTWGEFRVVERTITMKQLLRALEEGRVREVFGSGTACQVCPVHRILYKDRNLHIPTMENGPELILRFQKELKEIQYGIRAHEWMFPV
# Summary of the method: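 Coupled fluorescence readout: glutamate formed from L-leucine/α-ketoglutarate transamination drives GDH/NAD/diaphorase reduction of resazurin (Ex 540/Em 590). Human BCAT2 was first exposed 1 h at room temperature to compound, top final 100 μM in 3-fold, 10-point series; substrate reaction ran 1 h before SDS quench, in technical duplicate with DMSO max and enzyme-free min controls.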
# BCAT2 [2] = biological target: T2, BCAT2; assay: BCAT2 in vitro cell inhibition using engineered A549 cells (KMV cell assay, 13C6-KMV by LC-MS/MS); format: cell-based; design: The result was an engineered A549 cell line that expressed endogenous BCAT2; endogenous in cells; host or cells: A549 cells with MUT and BCAT1 knocked out by CRISPR/CAS9; key to BCAT2 Cell Inhibition: A: less than or equal to 0.100 μM; B: greater than 0.100 and less than or equal to 0.500 μM; C: greater than 0.500 and less than or equal to 1.000 μM; d: greater than 1.000 μM; E: no fit
Structure (SMILES),pIC50 (hBCAT1),pIC50 (BCAT2 [1]),BCAT2 Cell Inhibition (BCAT2 [2]),pIC50 (BCAT2 [2]),BCAT2 Enzyme Inhibition (BCAT2 [1])
"O=C(NC1COCC(n2c(-c3ncccc3F)nc3cnc(-n4ccnn4)cc32)C1)c1ncc(C(F)F)s1 (single isomer, unassigned) [Example 144, 5-(difluoromethyl)-N-(5-(2-(3-fluoropyridin-2-yl)-6-(1H-1,2,3-triazol-1-yl)-1H-imidazo[4,5-c]pyridin-1-yl)tetrahydro-2H-pyran-3-yl)thiazole-2-carboxamide]",< 5.30,6.00 to 6.30,,,
"O=C(NC1COCC(n2c(-c3ccccn3)nc3cnc(-n4ccnn4)cc32)C1)c1ncc(C(F)F)s1 (single isomer, unassigned) [Example 146, 5-(difluoromethyl)-N-(5-(2-(pyridin-2-yl)-6-(1H-1,2,3-triazol-1-yl)-1H-imidazo[4,5-c]pyridin-1-yl)tetrahydro-2H-pyran-3-yl)thiazole-2-carboxamide]",< 5.30,< 6.00,,,
"CC(C)Cc1nc2cnc(-c3ncccn3)cc2n1[C@H]1C[C@H](O)C[C@@H](NC(=O)c2ncc(Cl)s2)C1 (stereo in doubt) [Example 398, 5-chloro-N-((1S,3R,5R)-3-hydroxy-5-(2-isobutyl-6-(pyrimidin-2-yl)-1H-imidazo[4,5-c]pyridin-1-yl)cyclohexyl)thiazole-2-carboxamide]",> 6.30,≥ 7.00,,,
"CC(C)Cc1nc2cnc(-c3nc[nH]n3)cc2n1[C@@H]1C[C@H](NC(=O)c2ccc(Cl)s2)CC(F)(F)C1 (stereo in doubt) [Example 454, 5-chloro-N-((1S,5R)-3,3-difluoro-5-(2-isobutyl-6-(1H-1,2,4-triazol-3-yl)-1H-imidazo[4,5-c]pyridin-1-yl)cyclohexyl)thiophene-2-carboxamide]",> 6.30,≥ 7.00,,,
"C#Cc1cnc(C(=O)N[C@H]2CCC[C@@H](n3c(-c4ccccn4)nc4cnc(-n5cncn5)cc43)C2)s1 [Example 27, 5-ethynyl-N-((1S,3R)-3-(2-(pyridin-2-yl)-6-(1H-1,2,4-triazol-1-yl)-1H-imidazo[4,5-c]pyridin-1-yl)cyclohexyl)thiazole-2-carboxamide]",5.30 to 6.00,≥ 7.00,,,
"Cc1cn(-c2cc3c(cn2)nc(-c2ccccn2)n3[C@@H]2CCC[C@H](NC(=O)c3ccc(Br)s3)C2)nn1 [Example 40, 5-bromo-N-((1S,3R)-3-(6-(4-methyl-1H-1,2,3-triazol-1-yl)-2-(pyridin-2-yl)-1H-imidazo[4,5-c]pyridin-1-yl)cyclohexyl)thiophene-2-carboxamide]",5.30 to 6.00,≥ 7.00,,,
"Cc1nc2cnc(-n3nccn3)cc2n1[C@@H]1CCC[C@H](NC(=O)c2ccc(Br)s2)C1 [Example 51, 5-bromo-N-((1S,3R)-3-(2-methyl-6-(2H-1,2,3-triazol-2-yl)-1H-imidazo[4,5-c]pyridin-1-yl)cyclohexyl)thiophene-2-carboxamide]",< 5.30,< 6.00,,,
"O=C(N[C@H]1CCC[C@@H](n2c(-c3ncccc3F)nc3cnc(N4CCNC4=O)cc32)C1)c1ncc(C(F)F)s1 [Example 54, 5-(difluoromethyl)-N-((1S,3R)-3-(2-(3-fluoropyridin-2-yl)-6-(2-oxoimidazolidin-1-yl)-1H-imidazo[4,5-c]pyridin-1-yl)cyclohexyl)thiazole-2-carboxamide]",< 5.30,≥ 7.00,,,
"CO[C@@H]1C[C@@H](NC(=O)c2ncc(Cl)s2)C[C@@H](n2c(CC(C)C)nc3cnc(-n4cncn4)cc32)C1 [Example 418, 5-chloro-N-((1S,3R,5R)-3-(2-isobutyl-6-(1H-1,2,4-triazol-1-yl)-1H-imidazo[4,5-c]pyridin-1-yl)-5-methoxycyclohexyl)thiazole-2-carboxamide]",,< 6.00,E,,
"CO[C@@H]1C[C@@H](NC(=O)c2ncc(Cl)s2)C[C@@H](n2c(CC(C)C)nc3cnc(-c4ncccn4)cc32)C1 [Example 436, 5-chloro-N-((1S,3R,5R)-3-(2-isobutyl-6-(pyrimidin-2-yl)-1H-imidazo[4,5-c]pyridin-1-yl)-5-methoxycyclohexyl)thiazole-2-carboxamide]",,6.00 to 6.30,E,,
"CS(=O)(=O)N1C[C@@H](NC(=O)c2ccc(Cl)s2)C[C@@H](n2c(-c3ccccc3F)nc3cnc(-c4nc[nH]n4)cc32)C1 [Example 459, 5-chloro-N-((3S,5R)-5-(2-(2-fluorophenyl)-6-(1H-1,2,4-triazol-3-yl)-1H-imidazo[4,5-c]pyridin-1-yl)-1-(methylsulfonyl)piperidin-3-yl)thiophene-2-carboxamide]",,≥ 7.00,,6.30 to 7.00,
"COC(=O)N1C[C@@H](NC(=O)c2ccc(Cl)s2)C[C@@H](n2c(-c3ccccc3F)nc3cnc(-c4nc[nH]n4)cc32)C1 [Example 463, methyl (3S,5R)-3-(5-chlorothiophene-2-carboxamido)-5-(2-(2-fluorophenyl)-6-(1H-1,2,4-triazol-3-yl)-1H-imidazo[4,5-c]pyridin-1-yl)piperidine-1-carboxylate]",,≥ 7.00,,6.00 to 6.30,

# Further lines, results first:
pIC50 (hBCAT1),pIC50 (BCAT2 [1]),BCAT2 Cell Inhibition (BCAT2 [2]),pIC50 (BCAT2 [2]),BCAT2 Enzyme Inhibition (BCAT2 [1]),Structure (SMILES)
> 6.30,≥ 7.00,,,,"O=C(N[C@H]1CCC[C@@H](n2c(-c3ccccc3F)nc3cnc(-n4cncn4)cc32)C1)c1ccc(Br)s1 [Example 17, 5-bromo-N-((1S,3R)-3-(2-(2-fluorophenyl)-6-(1H-1,2,4-triazol-1-yl)-1H-imidazo[4,5-c]pyridin-1-yl)cyclohexyl)thiophene-2-carboxamide]"
,< 6.00,,< 6.00,,"CO[C@@H]1C[C@@H](NC(=O)c2ncc(Cl)s2)C[C@@H](n2c(-c3ccccc3F)nc3cnc(N4CCC[C@H]4CO)cc32)C1 [Example 430, 5-chloro-N-((1S,3R,5R)-3-(2-(2-fluorophenyl)-6-((S)-2-(hydroxymethyl)pyrrolidin-1-yl)-1H-imidazo[4,5-c]pyridin-1-yl)-5-methoxycyclohexyl)thiazole-2-carboxamide]"
,,E,,E,"CO[C@H]1[C@@H](NC(=O)c2ncc(Cl)s2)CCC[C@H]1n1c(-c2ccccc2F)nc2cnc(-c3nc[nH]n3)cc21 [Example 433, 5-chloro-N-((1S,2S,3R)-3-(2-(2-fluorophenyl)-6-(1H-1,2,4-triazol-3-yl)-1H-imidazo[4,5-c]pyridin-1-yl)-2-methoxycyclohexyl)thiazole-2-carboxamide]"
,,E,,E,"CO[C@@H]1[C@H](NC(=O)c2ncc(Cl)s2)CCC[C@@H]1n1c(-c2ccccc2F)nc2cnc(-c3nc[nH]n3)cc21 [Example 434, 5-chloro-N-((1R,2R,3S)-3-(2-(2-fluorophenyl)-6-(1H-1,2,4-triazol-3-yl)-1H-imidazo[4,5-c]pyridin-1-yl)-2-methoxycyclohexyl)thiazole-2-carboxamide]"
,≥ 7.00,,≥ 7.00,,"O=C(N[C@H]1CCC[C@@H](n2c(-c3ccccc3F)nc3ccc(-c4ncco4)cc32)[C@@H]1O)c1ncc(Cl)s1 [Example 465, 5-chloro-N-((1S,2R,3R)-3-(2-(2-fluorophenyl)-6-(oxazol-2-yl)-1H-benzo[d]imidazol-1-yl)-2-hydroxycyclohexyl)thiazole-2-carboxamide]"
,≥ 7.00,,≥ 7.00,,"O=C(N[C@H]1CCC[C@@H](n2c(-c3ccccc3F)nc3ccc(-c4ncccn4)cc32)[C@@H]1O)c1ncc(Cl)s1 [Example 466, 5-chloro-N-((1S,2R,3R)-3-(2-(2-fluorophenyl)-6-(pyrimidin-2-yl)-1H-benzo[d]imidazol-1-yl)-2-hydroxycyclohexyl)thiazole-2-carboxamide]"
